For 4 molecules, TD50 and carcinogen call results are on record in PubChem BioAssay AID1745844 (Carcinogenic Potency Database (CPDB), 2022).

The data set has as its system rodent lifetime carcinogenesis bioassay, tumor incidence TD50. In words: chronic cancer bioassays in animals – CPDB, compiled studies (AID 1745844).

The TD50 is the dose at which the toxic effect under study appears in half of the subjects.

The source made the active and inactive calls. No rule for the calls is given here.

On to `O=C(O)C=Cc1ccc(O)c(O)c1`, for which the TD50 reads like this: (mouse, strain B6C3F1, females, in feed, site: any site (literature study), lesion: one or several types, types not named, dosed 96 weeks, study length 96 weeks) 1900 mg/kg/day; (mouse, strain B6C3F1, females, in feed, site: forestomach, lesion: squamous-cell carcinoma, dosed 96 weeks, study length 96 weeks) 43300 mg/kg/day; (mouse, strain B6C3F1, females, in feed, site: kidney, lesion: tubular-cell adenoma, dosed 96 weeks, study length 96 weeks) 4700 mg/kg/day; (mouse, strain B6C3F1, males, in feed, site: any site (literature study), lesion: one or several types, types not named, dosed 96 weeks, study length 96 weeks) 3210 mg/kg/day; (mouse, strain B6C3F1, males, in feed, site: forestomach, lesion: papilloma, dosed 96 weeks, study length 96 weeks) 9790 mg/kg/day; (mouse, strain B6C3F1, males, in feed, site: forestomach, lesion: several types, types named in the paper, dosed 96 weeks, study length 96 weeks) 5270 mg/kg/day. Moreover, the TD50 is, setting by setting: (mouse, strain B6C3F1, males, in feed, site: forestomach, lesion: squamous-cell carcinoma, dosed 96 weeks, study length 96 weeks) 13300 mg/kg/day; (mouse, strain B6C3F1, males, in feed, site: lung, lesion: alveolar-cell adenoma, dosed 96 weeks, study length 96 weeks) 6110 mg/kg/day; (mouse, strain B6C3F1, males, in feed, site: lung, lesion: alveolar-cell carcinoma, dosed 96 weeks, study length 96 weeks) 41300 mg/kg/day; (mouse, strain B6C3F1, males, in feed, site: lung, lesion: several types, types named in the paper, dosed 96 weeks, study length 96 weeks) 5120 mg/kg/day; (rat, strain F344/DuCrj, females, in feed, site: any site (literature study), lesion: one or several types, types not named, dosed 104 weeks, study length 104 weeks) 312 mg/kg/day; (rat, strain F344/DuCrj, females, in feed, site: forestomach, lesion: papilloma, dosed 104 weeks, study length 104 weeks) 426 mg/kg/day. For the same molecule, the TD50 by setting is: (rat, strain F344/DuCrj, females, in feed, site: forestomach, lesion: several types, types named in the paper, dosed 104 weeks, study length 104 weeks) 298 mg/kg/day; (rat, strain F344/DuCrj, females, in feed, site: forestomach, lesion: squamous-cell carcinoma, dosed 104 weeks, study length 104 weeks) 989 mg/kg/day; (rat, strain F344/DuCrj, males, in feed, site: forestomach, lesion: papilloma, dosed 104 weeks, study length 104 weeks) 377 mg/kg/day; (rat, strain F344/DuCrj, males, in feed, site: forestomach, lesion: several types, types named in the paper, dosed 104 weeks, study length 104 weeks) 272 mg/kg/day; (rat, strain F344/DuCrj, males, in feed, site: forestomach, lesion: squamous-cell carcinoma, dosed 104 weeks, study length 104 weeks) 656 mg/kg/day; (rat, strain F344/DuCrj, males, in feed, site: forestomach, lesion: squamous-cell papilloma, dosed 51 weeks, study length 52 weeks) 217 mg/kg/day. The TD50 reads like this: (rat, strain F344/DuCrj, males, in feed, site: forestomach, lesion: squamous-cell papilloma, dosed 60 weeks, study length 60 weeks) 542 mg/kg/day; (rat, strain F344/DuCrj, males, in feed, site: kidney, lesion: tubular-cell adenoma, dosed 104 weeks, study length 104 weeks) 3830 mg/kg/day.
`CCCCNNCCCC`: the TD50 reads like this: (mouse, strain Swiss albino, females, in drinking water, site: all sites, lesion: malignant lymphoma, dosed 93 weeks, study length 93 weeks) 198 mg/kg/day; (mouse, strain Swiss albino, females, in drinking water, site: lung, lesion: several types, types named in the paper, dosed 93 weeks, study length 93 weeks) 69.8 mg/kg/day; (mouse, strain Swiss albino, males, in drinking water, site: all sites, lesion: malignant lymphoma, dosed 87 weeks, study length 87 weeks) 886 mg/kg/day; (mouse, strain Swiss albino, males, in drinking water, site: kidney, lesion: several types, types named in the paper, dosed 87 weeks, study length 87 weeks) 449 mg/kg/day; (mouse, strain Swiss albino, males, in drinking water, site: lung, lesion: several types, types named in the paper, dosed 87 weeks, study length 87 weeks) 34.5 mg/kg/day. Besides, the carcinogen call was “negative (inactive)” (mouse, strain Swiss albino, females, in drinking water, site: liver, lesion: angioma, dosed 93 weeks, study length 93 weeks); “negative (inactive)” (mouse, strain Swiss albino, females, in drinking water, site: liver, lesion: angiosarcoma, dosed 93 weeks, study length 93 weeks); “negative (inactive)” (mouse, strain Swiss albino, males, in drinking water, site: liver, lesion: angioma, dosed 87 weeks, study length 87 weeks); “negative (inactive)” (mouse, strain Swiss albino, males, in drinking water, site: liver, lesion: angiosarcoma, dosed 87 weeks, study length 87 weeks).
`Cc1ccc2c(-c3cccc(O)c3)nc(=O)n(C(C)C)c2c1`: the carcinogen call by setting is: (mouse, strain Charles River CD1, females, in feed, site: liver, lesion: hemangiosarcoma, dosed 86 weeks, study length 86 weeks) “negative (inactive)”; (mouse, strain Charles River CD1, females, in feed, site: lung, lesion: alveolar/bronchiolar adenoma, dosed 86 weeks, study length 86 weeks) “negative (inactive)”; (mouse, strain Charles River CD1, females, in feed, site: lung, lesion: hibernoma, malignant, dosed 86 weeks, study length 86 weeks) “negative (inactive)”; (mouse, strain Charles River CD1, males, in feed, site: liver, lesion: hemangiosarcoma, dosed 86 weeks, study length 86 weeks) “negative (inactive)”; (mouse, strain Charles River CD1, males, in feed, site: lung, lesion: alveolar/bronchiolar adenoma, dosed 86 weeks, study length 86 weeks) “negative (inactive)”; (rat, strain Sandoz, females, in feed, site: liver, lesion: hepatocellular carcinoma, dosed 104 weeks, study length 104 weeks) “negative (inactive)”. For the same molecule, the carcinogen call runs as follows: (rat, strain Sandoz, females, in feed, site: mammary tissue, wider than the gland, lesion: fibroadenoma, dosed 104 weeks, study length 104 weeks) “negative (inactive)”; (rat, strain Sandoz, males, in feed, site: liver, lesion: one or several types, types not named, dosed 104 weeks, study length 104 weeks) “negative (inactive)”. Moreover, the TD50 is, setting by setting: (mouse, strain Charles River CD1, females, in feed, site: lung, lesion: alveolar/bronchiolar carcinoma, dosed 86 weeks, study length 86 weeks) 4600 mg/kg/day (inactive); (mouse, strain Charles River CD1, males, in feed, site: lung, lesion: alveolar/bronchiolar carcinoma, dosed 86 weeks, study length 86 weeks) 8400 mg/kg/day (inactive); (rat, strain Sandoz, females, in feed, site: liver, lesion: neoplastic nodule, dosed 104 weeks, study length 104 weeks) 2220 mg/kg/day (inactive); (rat, strain Sandoz, males, in feed, site: adrenal gland, lesion: malignant tumor, dosed 104 weeks, study length 104 weeks) 113 mg/kg/day (inactive).
In the case of `C[C@@H]1CCC[C@H](C)N1CCCC(O)(c1ccccc1)c1ccccn1` (stereo partly drawn), the TD50 is 94.6 mg/kg/day (inactive) (mouse, strain B6C3F1, females, in feed, site: all sites, lesion: lymphoma, dosed 104 weeks, study length 104 weeks); 1560 mg/kg/day (inactive) (mouse, strain B6C3F1, females, in feed, site: liver, lesion: hepatocellular adenoma, dosed 104 weeks, study length 104 weeks); 978 mg/kg/day (inactive) (mouse, strain B6C3F1, females, in feed, site: liver, lesion: hepatocellular carcinoma, dosed 104 weeks, study length 104 weeks); 1980 mg/kg/day (inactive) (mouse, strain B6C3F1, females, in feed, site: lung, lesion: adenoma, dosed 104 weeks, study length 104 weeks); 947 mg/kg/day (inactive) (mouse, strain B6C3F1, males, in feed, site: lung, lesion: adenoma, dosed 104 weeks, study length 104 weeks); 4040 mg/kg/day (inactive) (mouse, strain B6C3F1, males, in feed, site: lung, lesion: carcinoma, dosed 104 weeks, study length 104 weeks). In addition, the TD50 (rat, strain Wistar, females, in feed, site: any site (literature study), lesion: several types, types named in the paper, dosed 104 weeks, study length 104 weeks) is 440 mg/kg/day (inactive); the TD50 (rat, strain Wistar, females, in feed, site: pituitary gland, lesion: adenoma, dosed 104 weeks, study length 104 weeks) was 15.9 mg/kg/day (inactive); the TD50 (rat, strain Wistar, males, in feed, site: adrenal gland, lesion: cortical adenoma, dosed 104 weeks, study length 104 weeks) was 104 mg/kg/day (inactive). Besides, the carcinogen call is “negative (inactive)” (mouse, strain B6C3F1, females, in feed, site: any site (literature study), lesion: several types, types named in the paper, dosed 104 weeks, study length 104 weeks); “negative (inactive)” (mouse, strain B6C3F1, females, in feed, site: lung, lesion: carcinoma, dosed 104 weeks, study length 104 weeks); “negative (inactive)” (mouse, strain B6C3F1, males, in feed, site: any site (literature study), lesion: several types, types named in the paper, dosed 104 weeks, study length 104 weeks); “negative (inactive)” (mouse, strain B6C3F1, males, in feed, site: liver, lesion: hepatocellular adenoma, dosed 104 weeks, study length 104 weeks); “negative (inactive)” (mouse, strain B6C3F1, males, in feed, site: liver, lesion: hepatocellular carcinoma, dosed 104 weeks, study length 104 weeks); “negative (inactive)” (rat, strain Wistar, females, in feed, site: liver, lesion: one or several types, types not named, dosed 104 weeks, study length 104 weeks). The carcinogen call (rat, strain Wistar, males, in feed, site: any site (literature study), lesion: several types, types named in the paper, dosed 104 weeks, study length 104 weeks) was “negative (inactive)” and the carcinogen call (rat, strain Wistar, males, in feed, site: liver, lesion: one or several types, types not named, dosed 104 weeks, study length 104 weeks) is “negative (inactive)”.
